Here are results for two compounds from patent publication US4056626A, “Pharmaceutical composition containing benzofuran derivative” (Kakenyaku Kako Co., Ltd., priority 1971, dated 1977).

Values joined by “and” are separate entries in the source; they are usually repeats but may differ in a detail not shown here. Equal values may be shown once. “Also recorded” adds a separate entry of the source.

Data set [1] relates to tachycardia in hyperthyroidism. In words: clinical study: tachycardia in hyperthyroidism, combination with antihyperthyroidism medicament. In kind it is in vivo, patients. As to conditions: in combination with Mercazol, 14 days, per patient. On the procedure: (B) A therapeutic effect of the present pharmaceutical composition in combination with an antihyperthyroidism medicament to tachycardia in hyperthyroidism was investigated.
To six patients of hyperthyroidism shown in Table VIII were orally administered the active ingredient, 2-acetyl-7-(2-hydroxy-3-isopropylaminopropoxy)benzofuran hydrochloride, contained in the capsules obtained in Example 47 and Mercazol in each dose of 30 mg./day (three times per day) for 14 days.

The subject of data set [2] is tachycardia in hyperthyroidism. In words: clinical study: tachycardia in hyperthyroidism, single administration. In kind it is in vivo, patients. The settings on record: 14 days; for Pulse rate after treatment, average / Pulse rate difference, average: 12 patients; for Pulse rate after treatment, average / Pulse rate difference / Pulse rate after treatment: in beats/min (unit assumed); for Pulse rate difference: before minus after. On the procedure: A. A therapeutic effect of the present pharmaceutical composition to tachycardia in hyperthyroidism in case of its signle administration was investigated.
To 12 patients of hyperthyroidism shown in Table VI was orally administered the active ingredient, 2-acetyl-7-(2-hydroxy-3-isopropylaminopropoxy)benzofuran hydrochloride, contained in the capsules obtained in Example 47 in a dose of 30 mg./day (3 times per day) for 14 days. The treatment evaluation was determined according to the following standard:
For reference, a therapeutic effect of an antihyperthyroidism medicament to tachycardia in hyperthyroidism in case of its single administration was investigated.
To 12 patients of hyperthyroidism shown in Table VII was orally administered Mercazol which has been widely employed as an antihyperthyroidism medicament in a dose of 30 mg./day for 14 days.

Another data set relates to hypertension. In words: clinical study of hypertension. In kind it is in vivo. The settings on record: four hypertensive patients; oral 60 mg./day, 30 days. From the text: To a patient of 68 age who was diagnosed as an essential hypertension was orally administered the active ingredient, 2-acetyl-7-(2-hydroxy-3-isopropyl aminopropoxy)benzofuran hydrochloride, […] As a result, the maximum blood pressure of 210 mmHg and the minimum blood pressure of 88 mmHg before treatment were decreased to 176 mmHg and 76 mmHg after treatment, respectively.

For the next data set, the system named is angina pectoris. In words: clinical study of angina pectoris. In kind it is in vivo, patients. Details: key: Extremely effective (++): An outstanding improvement of subjective symptom and an outstanding improvement in electrocardiogram were observed.; Effective (+): Therapeutic effects were clearly observed.; Slightly effective (±): Subjective symptom was fairly decreased and some improvement in electrocardiogram was observed.; Non-effective (-): Any therapeutic effect was not observed. The settings on record: oral 15 to 60 mg./day, 1 to 10 weeks, per patient, hydrochloride. On the procedure:
A clinical study relating to angina pectoris was made covering the patients shown in Table V. The active ingredient, 2-acetyl-7-(2-hydroxy-3-isopropylaminopropoxy)benzofuran hydrochloride, contained in the capsules obtained in Example 47 was administered orally in a dose of 15 to 60 mg./day for a period of 1 to 10 weeks.

Another data set has as its system cardiac arrhythmias. In words: clinical study of cardiac arrhythmias. The settings on record: oral 30 to 60 mg./day, 10 days to 12 weeks. In kind it is in vivo, patients. Details: key to Treatment evaluation: Extremely effective (++): An outstanding improvement of subjective symptom and an outstanding improvement in electrocardiogram were observed.; Effective (+): Therapeutic effects were clearly observed.; Slightly effective (±): Subjective symptom was fairly decreased and some improvement in electrocardiogram was observed.; Non-effective (-): Any therapeutic effect was not observed. As to the method: The active ingredient, 2-acetyl-7-(2-hydroxy-3-isopropylaminopropoxy)benzofuran hydrochloride, contained in the capsules obtained in Example 47 was administrered orally in a dose of 30 to 60 mg./day for a period of 10 days to 12 weeks. The treatment evaluation was determined according to the following standard: […]

[3] abbreviates: hyperthyroidism, oral 30 mg./day (3 times per day), per patient, hydrochloride.
[4] abbreviates: one value per patient, hydrochloride.
The mark [5] stands for this setting: Mercazol reference, oral 30 mg./day, per patient.

In the case of `CC(=O)c1cc2cccc(OCC(O)CNC(C)C)c2o1.Cl` (centres unmarked) [2-acetyl-7-(2-hydroxy-3-isopropylaminopropoxy)benzofuran hydrochloride], the “Pulse rate after treatment” value was 88 and 76 and 78 and 68 and 82 in data set [1] (each oral 30 mg./day (three times per day), hydrochloride, in beats/min (unit assumed)); 80 and 108 and 88 and 100 and 77 and 76 and 84 in data set [2] (setting [3]). The Side effect result was “No” in data set [1] (each oral 30 mg./day); “No” in data set [2] (hyperthyroidism, oral 30 mg./day (3 times per day), per patient); “No” in the data set on cardiac arrhythmias (per patient). The Treatment evaluation entry in data set [1] (each oral 30 mg./day, hydrochloride) is “+ (Effective (+): The pulse rate before treatment was decreased in a difference of 10 to 19 after treatment.); also recorded: ++ (Extremely effective (++): The pulse rate before treatment was decreased in a difference of not less than 20 after treatment.)”; in data set [2] (setting [3]) it was “++ (Extremely effective (++): The pulse rate before treatment was decreased in a difference of not less than 20 after treatment.); also recorded: + (Effective (+): The pulse rate before treatment was decreased in a difference of 10 to 19 after treatment.)”; in the data set on angina pectoris it was “± and + and - and ++”; in the data set on cardiac arrhythmias (cardiac arrhythmias, per patient, hydrochloride), “+ and ± and - and ++”. The “Pulse rate after treatment, average” value in data set [2] (oral 30 mg./day, average before treatment 114.5, standard deviation 11.6) is reported as 90.4. This compound gave a Pulse rate difference, average in data set [2] (oral 30 mg./day, standard deviation printed 1.1) of 23.8 beats/min. Besides, the Pulse rate difference in data set [2] (oral 30 mg./day (3 times per day), per patient, hydrochloride) was 22 and 32 and 14 and 30 and 51 and 28 and 24 and 20 and 8 and 16. Further, the good therapeutic results in the data set on hypertension is “three patients among four, good therapeutic results were obtained”. The “Blood pressure after treatment (first figure, systolic)” value in the data set on cardiac arrhythmias (setting [4]) was 96 mmHg and 114 mmHg and 104 mmHg and 130 mmHg and 145 mmHg and 154 mmHg and 165 mmHg and 125 mmHg and 108 mmHg and 135 mmHg and 118 mmHg. In addition, the “Blood pressure after treatment (second figure, diastolic)” value with cardiac arrhythmias (setting [4]) was 66 mmHg and 70 mmHg and 62 mmHg and 78 mmHg and 110 mmHg and 75 mmHg and 80 mmHg and 68 mmHg. Further, the “Heart rate/min. after treatment” value in the data set on cardiac arrhythmias (setting [4]) was 60 min⁻¹ and 82 min⁻¹ and 68 min⁻¹ and 72 min⁻¹ and 76 min⁻¹ and 64 min⁻¹ and 100 min⁻¹.

With `Cn1cc[nH]c1=S` [Mercazol, reference compound], the “Pulse rate after treatment, average” value in data set [2] (Mercazol reference, oral 30 mg./day, average before treatment 111.3, standard deviation 8.6) came to 100.2. For the same compound, in data set [2] (Mercazol reference, oral 30 mg./day, standard deviation printed 0.6), the Pulse rate difference, average amounted to 12 beats/min. Moreover, in data set [2] (setting [5]), the Pulse rate difference is 20 and 22 and 10 and 14 and 12 and 4 and 0; the “Pulse rate after treatment” value is 90 and 110 and 100 and 108 and 116.
